# What was measured:
# [1] = tested on: ginsenoside glycosidases from wheat bran; experiment: Hydrolysis of ginsenosides with ginsenoside glycosidases from wheat bran; assay type: biochemical; details: 10 ml of 1% ginsenoside substrate, 40° C., 20 hours
# Method: 500 g of wheat bran was added to 2500 ml of 0.02 M acetate buffer pH 5 and extracted at 40° C. for 2 hours. 2000 ml of supernatant were obtained by filtration to which (NH4)2SO4 was added gradually with stirring until 70% saturation. The mixture stand at 4° C. overnight. Protein pellets were collected by centrifugation and redissolved in 80 ml of distilled water and dialyzed against 0.02 M acetate buffer pH 5.0. Insolubles were removed by centrifugation and the supernatant was adjusted to a volume of 200 ml to obtain the crude enzyme solution.
# 10 ml of the enzyme solution was allowed to react with 10 ml of 1% ginsenoside substrate at 40° C. for 20 hours.
# [2] = tested on: ginsenoside glycosidases from A. niger; experiment: Hydrolysis of ginsenosides with crude ginsenoside glycosidases from A. niger, products measured by TLC; assay type: biochemical, Aspergillus niger; details: Rb1 0.5%
# Method: Aspergillus niger FFCCDL-48 g was cultured in a medium containing 1% ginseng extracts and 3% wheat bran extracts at 30° C. for 54 hours. Cells were removed by centrifugation, after which (NH4)2SO4 powder was added to 2000 ml of the cell-free supernatant with stirring to 65% saturation. The solution was stored overnight at 4° C. and precipitated proteins were collected by centrifugation, resuspended in 80 ml of distilled water and dialyzed against 0.01M acetate buffer pH 5. Insolubles were removed by centrifugation, and the solution was adjusted to 200 ml with 0.01 M acetate buffer pH 5. The crude enzyme solution may be used to hydrolyze ginsenosides or to purify the enzymes.
# 100 mg each of ginsenosides Rb1, Rb2, Rc and Rd and 10 mg of ginsenoside Rg3 were dissolved in separate tubes containing 10 ml of 0.01M acetate buffer pH 5. 10 ml of the crude enzyme solution obtained in 1.1 was added to each tube and allowed to react at 30° C. for 18 hours. Then 10 ml of n-butanol was added to stop the reactions. The products were measured by thin layer chromatography (TLC) (Silica gel 60-F254, Merck; chloroform:methanol:water 70:30:5).
# Experiments were carried out to explore the effects of temperature, pH, metal ions and reaction time on the enzyme reaction, in order to further characterize the enzymes.
# 100 mg of ginsenoside Rb1 was used in a reaction under the conditions as described in 1.2 and the effect of temperature was shown in Table 2.
compound,measurement,setting,value
"CC(C)=CCC[C@](C)(O[C@@H]1O[C@H](CO[C@@H]2O[C@H](CO)[C@@H](O)[C@H](O)[C@H]2O)[C@@H](O)[C@H](O)[C@H]1O)[C@H]1CC[C@]2(C)[C@@H]1[C@H](O)C[C@@H]1[C@@]3(C)CC[C@H](O[C@@H]4O[C@H](CO)[C@@H](O)[C@H](O)[C@H]4O[C@@H]4O[C@H](CO)[C@@H](O)[C@H](O)[C@H]4O)C(C)(C)[C@@H]3CC[C@]12C [Rb1, ginsenoside Rb1]",Percentage of F2 in the reaction product,[1],55%
same,Percentage of Rd in the reaction product,[1],40%
same,Percentage of C—K in the reaction product,"[2]; 20° C., pH 5.0, 18 hours",10%
same,Percentage of F2 in the reaction product,"[2]; 20° C., pH 5.0, 18 hours",15%
same,Percentage of Rb1 in the reaction product,"[2]; 20° C., pH 5.0, 18 hours",25%
same,Percentage of Rd in the reaction product,"[2]; 20° C., pH 5.0, 18 hours",50%
same,Percentage of C—K in the reaction product,"[2]; 30° C., pH 5.0, 18 hours",16%
same,Percentage of F2 in the reaction product,"[2]; 30° C., pH 5.0, 18 hours",63%
same,Percentage of Rb1 in the reaction product,"[2]; 30° C., pH 5.0, 18 hours",1%
same,Percentage of Rd in the reaction product,"[2]; 30° C., pH 5.0, 18 hours",10%
same,Percentage of Rh2 in the reaction product,"[2]; 30° C., pH 5.0, 18 hours",5%
same,Percentage of aglycone in the reaction product,"[2]; 30° C., pH 5.0, 18 hours",5%
same,Percentage of C—K in the reaction product,"[2]; 40° C., pH 5.0, 18 hours",34%
same,Percentage of F2 in the reaction product,"[2]; 40° C., pH 5.0, 18 hours",50%
same,Percentage of Rd in the reaction product,"[2]; 40° C., pH 5.0, 18 hours",5%
same,Percentage of Rh2 in the reaction product,"[2]; 40° C., pH 5.0, 18 hours",6%
same,Percentage of aglycone in the reaction product,"[2]; 40° C., pH 5.0, 18 hours",5%
same,Percentage of C—K in the reaction product,"[2]; 50° C., pH 5.0, 18 hours",42%
same,Percentage of F2 in the reaction product,"[2]; 50° C., pH 5.0, 18 hours",40%
same,Percentage of Rd in the reaction product,"[2]; 50° C., pH 5.0, 18 hours",5%
same,Percentage of Rh2 in the reaction product,"[2]; 50° C., pH 5.0, 18 hours",4%
same,Percentage of aglycone in the reaction product,"[2]; 50° C., pH 5.0, 18 hours",4%
same,Percentage of C—K in the reaction product,"[2]; 60° C., pH 5.0, 18 hours",6%
same,Percentage of F2 in the reaction product,"[2]; 60° C., pH 5.0, 18 hours",10%
same,Percentage of Rb1 in the reaction product,"[2]; 60° C., pH 5.0, 18 hours",30%
same,Percentage of Rd in the reaction product,"[2]; 60° C., pH 5.0, 18 hours",50%
same,Percentage of Rh2 in the reaction product,"[2]; 60° C., pH 5.0, 18 hours",2%
same,Percentage of aglycone in the reaction product,"[2]; 60° C., pH 5.0, 18 hours",2%
same,Percentage of Rb1 in the reaction product,"[2]; 70° C., pH 5.0, 18 hours",82%
same,Percentage of Rd in the reaction product,"[2]; 70° C., pH 5.0, 18 hours",18%
same,Percentage of C—K in the reaction product,"[2]; Ca^++ 50 mM, pH 5.0, 30°C.",20%
same,Percentage of F2 in the reaction product,"[2]; Ca^++ 50 mM, pH 5.0, 30°C.",65%
same,Percentage of Rd in the reaction product,"[2]; Ca^++ 50 mM, pH 5.0, 30°C.",4%
same,Percentage of Rh2 in the reaction product,"[2]; Ca^++ 50 mM, pH 5.0, 30°C.",7%
same,Percentage of aglycone in the reaction product,"[2]; Ca^++ 50 mM, pH 5.0, 30°C.",4%
same,Percentage of C—K in the reaction product,"[2]; Ca^++ 100 mM, pH 5.0, 30°C.",21%
same,Percentage of F2 in the reaction product,"[2]; Ca^++ 100 mM, pH 5.0, 30°C.",67%
same,Percentage of Rh2 in the reaction product,"[2]; Ca^++ 100 mM, pH 5.0, 30°C.",7%
same,Percentage of aglycone in the reaction product,"[2]; Ca^++ 100 mM, pH 5.0, 30°C.",5%
same,Percentage of C—K in the reaction product,"[2]; Cu^++ 100 mM, pH 5.0, 30°C.",10%
same,Percentage of F2 in the reaction product,"[2]; Cu^++ 100 mM, pH 5.0, 30°C.",30%
same,Percentage of Rb1 in the reaction product,"[2]; Cu^++ 100 mM, pH 5.0, 30°C.",30%
same,Percentage of Rd in the reaction product,"[2]; Cu^++ 100 mM, pH 5.0, 30°C.",30%
same,Percentage of C—K in the reaction product,"[2]; Mg^++ 50 mM, pH 5.0, 30°C.",17%
same,Percentage of F2 in the reaction product,"[2]; Mg^++ 50 mM, pH 5.0, 30°C.",65%
same,Percentage of Rd in the reaction product,"[2]; Mg^++ 50 mM, pH 5.0, 30°C.",6%
same,Percentage of Rh2 in the reaction product,"[2]; Mg^++ 50 mM, pH 5.0, 30°C.",7%
same,Percentage of aglycone in the reaction product,"[2]; Mg^++ 50 mM, pH 5.0, 30°C.",5%
same,Percentage of C—K in the reaction product,"[2]; Mg^++ 100 mM, pH 5.0, 30°C.",21%
same,Percentage of F2 in the reaction product,"[2]; Mg^++ 100 mM, pH 5.0, 30°C.",67%
same,Percentage of Rh2 in the reaction product,"[2]; Mg^++ 100 mM, pH 5.0, 30°C.",8%
same,Percentage of aglycone in the reaction product,"[2]; Mg^++ 100 mM, pH 5.0, 30°C.",4%
same,Percentage of C—K in the reaction product,"[2]; No ion, pH 5.0, 30°C.",16%
same,Percentage of F2 in the reaction product,"[2]; No ion, pH 5.0, 30°C.",63%
same,Percentage of Rd in the reaction product,"[2]; No ion, pH 5.0, 30°C.",10%
same,Percentage of Rh2 in the reaction product,"[2]; No ion, pH 5.0, 30°C.",5%
same,Percentage of aglycone in the reaction product,"[2]; No ion, pH 5.0, 30°C.",2%
same,Percentage of C—K in the reaction product,"[2]; Pb^++ 100 mM, pH 5.0, 30°C.",1%
same,Percentage of F2 in the reaction product,"[2]; Pb^++ 100 mM, pH 5.0, 30°C.",9%
same,Percentage of Rb1 in the reaction product,"[2]; Pb^++ 100 mM, pH 5.0, 30°C.",70%
same,Percentage of Rd in the reaction product,"[2]; Pb^++ 100 mM, pH 5.0, 30°C.",20%
same,Percentage of C—K in the reaction product,"[2]; pH 3.0, 30° C., 18 hours",40%
same,Percentage of F2 in the reaction product,"[2]; pH 3.0, 30° C., 18 hours",30%
same,Percentage of Rb1 in the reaction product,"[2]; pH 3.0, 30° C., 18 hours",2%
same,Percentage of Rd in the reaction product,"[2]; pH 3.0, 30° C., 18 hours",20%
same,Percentage of Rh2 in the reaction product,"[2]; pH 3.0, 30° C., 18 hours",8%
same,Percentage of aglycone in the reaction product,"[2]; pH 3.0, 30° C., 18 hours",10%
same,Percentage of C—K in the reaction product,"[2]; pH 4.0, 30° C., 18 hours",39%
same,Percentage of F2 in the reaction product,"[2]; pH 4.0, 30° C., 18 hours",43%
same,Percentage of Rb1 in the reaction product,"[2]; pH 4.0, 30° C., 18 hours",1%
same,Percentage of Rd in the reaction product,"[2]; pH 4.0, 30° C., 18 hours",10%
same,Percentage of Rh2 in the reaction product,"[2]; pH 4.0, 30° C., 18 hours",7%
same,Percentage of aglycone in the reaction product,"[2]; pH 4.0, 30° C., 18 hours",5%
same,Percentage of C—K in the reaction product,"[2]; pH 5.0, 30° C., 18 hours",16%
